Earlier results on one compound are cited in patent publication US7829688B2, “Peptides of CaV2.2 that inhibit pain” (The Board of Regents of the University of Texas System, priority 2004, dated 2010).

The target of this series is T1, N-type Ca2+ channels (Rattus norvegicus, UniProt Q02294, C1579L/DEL1236-1239/DEL415-415/E177G/INS1558ET).
T1 construct: host or cells: rat, in vivo (Malmberg and Yaksh, 1994, 1995)
The conditions noted are these: in vivo; cited from earlier work.

T1 sequence (Q02294 whole entry, looked up, stated change not applied): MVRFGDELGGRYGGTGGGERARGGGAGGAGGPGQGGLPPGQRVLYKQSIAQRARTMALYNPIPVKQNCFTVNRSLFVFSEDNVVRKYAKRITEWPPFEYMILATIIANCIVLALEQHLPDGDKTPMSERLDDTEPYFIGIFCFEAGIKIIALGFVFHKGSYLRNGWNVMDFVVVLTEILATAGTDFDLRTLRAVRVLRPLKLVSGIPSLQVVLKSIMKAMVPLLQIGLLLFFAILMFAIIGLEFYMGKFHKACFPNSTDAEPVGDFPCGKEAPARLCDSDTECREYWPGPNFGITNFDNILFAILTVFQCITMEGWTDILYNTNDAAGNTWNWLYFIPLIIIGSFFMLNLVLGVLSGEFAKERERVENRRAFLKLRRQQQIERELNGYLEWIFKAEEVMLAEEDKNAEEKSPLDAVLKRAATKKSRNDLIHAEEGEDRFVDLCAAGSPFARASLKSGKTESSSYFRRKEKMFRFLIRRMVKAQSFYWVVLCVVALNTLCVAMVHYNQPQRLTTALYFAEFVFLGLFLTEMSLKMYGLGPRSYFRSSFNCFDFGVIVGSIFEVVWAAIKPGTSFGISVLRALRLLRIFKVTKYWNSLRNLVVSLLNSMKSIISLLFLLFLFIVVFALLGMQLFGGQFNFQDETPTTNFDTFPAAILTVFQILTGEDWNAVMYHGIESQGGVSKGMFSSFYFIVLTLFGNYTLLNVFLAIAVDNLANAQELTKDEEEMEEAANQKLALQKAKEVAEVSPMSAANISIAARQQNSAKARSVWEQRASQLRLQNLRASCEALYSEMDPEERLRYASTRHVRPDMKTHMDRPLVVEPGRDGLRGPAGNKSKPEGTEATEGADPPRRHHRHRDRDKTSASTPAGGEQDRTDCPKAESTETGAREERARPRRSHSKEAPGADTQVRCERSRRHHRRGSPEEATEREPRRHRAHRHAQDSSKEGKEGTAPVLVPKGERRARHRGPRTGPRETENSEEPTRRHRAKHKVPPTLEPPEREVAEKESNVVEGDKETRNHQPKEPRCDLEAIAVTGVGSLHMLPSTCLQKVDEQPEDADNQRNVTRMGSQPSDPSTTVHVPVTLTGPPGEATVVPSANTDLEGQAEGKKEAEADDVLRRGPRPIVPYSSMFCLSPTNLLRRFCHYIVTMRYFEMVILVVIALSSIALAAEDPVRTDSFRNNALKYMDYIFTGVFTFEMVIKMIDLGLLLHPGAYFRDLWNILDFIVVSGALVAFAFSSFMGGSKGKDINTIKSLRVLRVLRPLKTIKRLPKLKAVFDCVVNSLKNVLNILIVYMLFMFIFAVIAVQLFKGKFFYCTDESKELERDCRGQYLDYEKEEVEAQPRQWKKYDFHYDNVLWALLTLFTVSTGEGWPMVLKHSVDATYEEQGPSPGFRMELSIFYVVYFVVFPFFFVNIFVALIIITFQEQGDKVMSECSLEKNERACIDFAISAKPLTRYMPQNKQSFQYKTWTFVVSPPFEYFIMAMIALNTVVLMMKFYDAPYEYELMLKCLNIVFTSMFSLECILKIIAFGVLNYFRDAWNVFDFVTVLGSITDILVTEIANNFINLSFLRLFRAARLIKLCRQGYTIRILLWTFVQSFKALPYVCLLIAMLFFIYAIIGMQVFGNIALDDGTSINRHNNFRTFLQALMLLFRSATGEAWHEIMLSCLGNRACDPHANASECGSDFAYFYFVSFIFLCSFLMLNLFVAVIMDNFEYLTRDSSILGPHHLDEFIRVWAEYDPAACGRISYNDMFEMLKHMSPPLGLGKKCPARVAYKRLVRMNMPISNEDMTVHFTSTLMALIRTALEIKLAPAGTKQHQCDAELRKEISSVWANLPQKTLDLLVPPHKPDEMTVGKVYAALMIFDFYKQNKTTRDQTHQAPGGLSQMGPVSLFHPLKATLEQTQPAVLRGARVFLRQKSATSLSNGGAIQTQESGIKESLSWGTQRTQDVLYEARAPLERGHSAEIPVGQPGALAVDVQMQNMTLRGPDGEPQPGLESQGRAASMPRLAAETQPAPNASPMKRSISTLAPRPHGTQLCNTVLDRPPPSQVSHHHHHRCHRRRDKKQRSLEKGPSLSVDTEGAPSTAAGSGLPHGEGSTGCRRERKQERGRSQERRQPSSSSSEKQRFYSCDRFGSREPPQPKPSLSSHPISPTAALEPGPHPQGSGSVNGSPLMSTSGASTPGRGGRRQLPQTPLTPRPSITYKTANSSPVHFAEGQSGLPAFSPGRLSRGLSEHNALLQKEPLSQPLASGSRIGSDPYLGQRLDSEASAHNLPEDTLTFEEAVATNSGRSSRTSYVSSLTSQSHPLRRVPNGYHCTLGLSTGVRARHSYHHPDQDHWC

With `CSCC[C@@H]1NC(=O)[C@H](CC(C)C)NC(=O)[C@H](CCCNC(=N)N)NC(=O)[C@H](CO)NC(=O)[C@@H]2CSSC[C@@H]3NC(=O)[C@H](CO)NC(=O)CNC(=O)[C@H]([C@@H](C)O)NC(=O)[C@H](CSSC[C@H](N)C(=O)N[C@@H](CCCCN)C(=O)NCC(=O)N[C@@H](CCCCN)C(=O)NCC(=O)N[C@@H](C)C(=O)N[C@@H](CCCCN)C(=O)N2)NC(=O)[C@H](CSSC[C@@H](C(N)=O)NC(=O)[C@H](CCCCN)NC(=O)CNC(=O)[C@H](CO)NC(=O)[C@H](CCCNC(=N)N)NC3=O)NC(=O)[C@H](CC(=O)O)NC(=O)[C@H](Cc2ccc(O)cc2)NC1=O` [SNX-111], the “phase II formalin response” value is given as “inhibited”.
